Reference: PubChem BioAssay AID720632 (Broad Institute, 2013)
Active and inactive are the calls of the source. No rule for the calls is given here.

Biological target: Caspase-6 (Homo sapiens) (UniProt P55212)
Assay: human caspase-6 inhibitors, dose response, biochemical, VEID-R110 fluorescence, cherry-pick (AID 720632)
Conditions: caspase-6, VEID-R110 fluorogenic substrate

Chain of Caspase-6 (Homo sapiens) (P55212 24-179 limits assumed): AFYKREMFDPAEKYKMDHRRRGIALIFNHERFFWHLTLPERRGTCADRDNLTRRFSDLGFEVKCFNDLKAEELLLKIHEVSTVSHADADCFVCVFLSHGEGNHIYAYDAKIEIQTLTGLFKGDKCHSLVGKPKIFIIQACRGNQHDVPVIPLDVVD
Chain of Caspase-6 (Homo sapiens) (P55212 194-293 limits assumed): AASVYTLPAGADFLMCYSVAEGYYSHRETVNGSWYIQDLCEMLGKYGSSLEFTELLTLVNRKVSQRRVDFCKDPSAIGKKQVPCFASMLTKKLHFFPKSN

| activity change, negative = inhibition (at 26 µM (top of the series)) | activity change, negative = inhibition (at 23.5 µM (top of the series)) | SMILES |
| --- | --- | --- |
| inactive |  | CCC(=O)Nc1ccc2c(c1)OC[C@H](C)N(C(=O)CC)C[C@@H](C)[C@H](OC)CN(C)C2=O |
| inactive |  | O=C([C@@H]1[C@@H](CO)[C@@H]2Cn3c(cccc3=O)[C@@H]2N1Cc1cc(F)ccc1F)N1CCOCC1 |
| inactive |  | COCCNc1nc(Nc2ccccc2Cl)c2sc(-c3ccccc3)cc2n1 |
| inactive |  | COc1ccc(N2CCN(C(=O)CCCn3c(=S)[nH]c4cc5c(cc4c3=O)OCO5)CC2)cc1 |
| inactive |  | CCN(Cc1ccccc1OC)CC1CCCN(CCc2cccc(OC)c2)C1 (stereo not drawn) |
| inactive |  | Cc1ccc(-c2nc3ccc(Cl)cn3c2Cc2ccsc2)cc1 |
| inactive |  | CCCN1C[C@H](C)[C@H](OC)CN(C)C(=O)c2ccc(NC(=O)CC)cc2OC[C@H]1C |
| inactive |  | O=S(=O)(c1cccc2cccnc12)N1CCN(c2ccc(F)cc2)CC1 |
| inactive |  | O=C(c1cccc(S(=O)(=O)N2CCCCCC2)c1)N1CCN(c2ccccc2F)CC1 |
| inactive |  | CN1CCN(CC(=O)Nc2ccc(Cl)cc2Cl)CC1 |
| inactive |  | CCOC(=O)CC1C(=O)NCCN1S(=O)(=O)c1cccc(C(F)(F)F)c1 (stereo not drawn) |
| inactive |  | Cc1ccc(NS(=O)(=O)c2ccc(Br)s2)nc1 |
| inactive |  | CO[C@@H]1CN(C)C(=O)c2ccc(NC(=O)C3CC3)cc2OC[C@@H](C)N(C)C[C@H]1C |
| inactive |  | S=c1[nH]cc(-c2ccccc2)n1-c1cccc(Cl)c1 |
| inactive |  | Cc1ccc(NC(=O)Nc2nnc(-c3ccccc3)o2)cc1 |
| inactive |  | COc1ccccc1C(=O)Nc1ccc2c(c1)OC[C@H](C)N(CC1CC1)C[C@@H](C)[C@@H](OC)CN(C)C2=O |
| inactive |  | COc1ccc(OCCN2CCC(C(=O)NC(c3ccccn3)c3ccccc3OC)CC2)cc1 (stereo not drawn) |

| activity change, negative = inhibition (at 26 µM (top of the series)) | activity change, negative = inhibition (at 23.5 µM (top of the series)) | SMILES |
| --- | --- | --- |
| inactive |  | CC(=O)Oc1cc(C(=O)OCC(=O)N2CCc3ccccc3C2)cc(OC(C)=O)c1OC(C)=O |
| inactive |  | Cc1ccc(C)c(S(=O)(=O)N2CCN(C(C)C(=O)Nc3ccccc3-c3ccccc3)CC2)c1 (stereo not drawn) |
| inactive |  | O=C(OCc1ccccc1)N1CCCC2CC1c1ccccc12 (stereo not drawn) |
| inactive |  | CC1CCN(CCCNC(=O)COc2cc(=O)n(C)c3ccccc23)CC1 |
| inactive |  | COc1ccc(OC)c(N/C(=N/c2nc(C)cc(C)n2)NC(C)=O)c1 |
| inactive |  | COCC(=O)Nc1ccc2c(c1)OC[C@H](C)N(CC1CC1)C[C@@H](C)[C@@H](OC)CN(C)C2=O |
| inactive |  | CCCN1C[C@@H](C)[C@H](OC)CN(C)C(=O)c2ccc(NC(=O)CC)cc2OC[C@@H]1C |
| inactive |  | COc1cc(-c2nnc(COC(=O)c3ccc([N+](=O)[O-])o3)o2)cc(OC)c1OC |
|  | inactive | CCC(=O)Nc1ccc2c(c1)OC[C@@H](C)N(C(=O)COC)C[C@H](C)[C@@H](OC)CN(C)C2=O |
| inactive |  | CC(Nc1ccc2ccccc2c1)C(=O)N/N=C/c1ccncc1 (stereo not drawn) |
| inactive |  | Cc1ccc(C(=O)N/N=C\c2ccc(OC(=O)c3cccc(F)c3)cc2)cn1 |
| inactive |  | CCC1CCc2sc(C(=O)NNC(=O)c3ccncc3)cc2C1 (stereo not drawn) |
| inactive |  | CO[C@@H]1CN(C)C(=O)c2ccc(NC(=O)C3CC3)cc2OC[C@H](C)N(Cc2ccccc2)C[C@H]1C |
| inactive |  | O=C(NCC(c1ccco1)N1CCc2ccccc21)c1cccc([N+](=O)[O-])c1 (stereo not drawn) |
| inactive |  | CCCC(=O)Nc1ccc2c(c1)OC[C@H](C)N(Cc1ccc(F)cc1)C[C@H](C)[C@@H](OC)CN(C)C2=O |
|  | inactive | CO[C@H]1CN(C)C(=O)c2ccc(NC(=O)c3ccccc3)cc2OC[C@@H](C)N(C(=O)C2CC2)C[C@H]1C |
